# From the supplement of paper PMC6206229
# What was measured:
# [1] = system: Staphylococcus aureus ATCC 700699 (MRSA); assay: minimum inhibitory concentration; extreme values may be limits of the assay
# Method in brief: (§1)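 Broth microdilution in 96-well plates, following CLSI guidance with a resazurin redox read-out, was used to test methicillin-susceptible and methicillin-resistant Staphylococcus aureus. Compounds ranging from 0 to 100 µM were incubated with the bacteria at 37°C for 24 h, after which 30 µl of 0.015% resazurin was added for 2–4 h, and every plate carried positive controls. The minimum inhibitory concentration was taken as the lowest concentration at which wells stayed blue instead of turning pink, and runs were performed at least twice in triplicate.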
# [2] = system: Staphylococcus aureus ATCC 29213 (MSSA); assay: as above
# Method in brief: as §1
Structure (SMILES),minimum inhibitory concentration [1],minimum inhibitory concentration [2]
C[C@]1(COc2ccc(N3CCC(Oc4ccc(OC(F)(F)F)cc4)CC3)cc2)Cn2cc([N+](=O)[O-])nc2O1,> 50 µM,> 50 µM
Cc1ccc(NC(=O)c2nc[nH]c2C(=O)Nc2nc3ccccc3[nH]2)c(C)c1,> 50 µM,> 50 µM
COCC(C)NC(=O)CSc1ncnc2sc(-c3ccccc3)cc12 (centres undefined),> 50 µM,> 50 µM
O=C(NCCN1CCCC1)c1cc(NCCCCN2CCC(F)(F)CC2)nc2ccc(Cl)cc12,> 50 µM,> 50 µM
Cc1ccccc1C(=O)N1N=C(Nc2ccccc2)SC1(C)C,> 50 µM,> 50 µM
CC(C)(C)C(O)C(Oc1ccc(-c2ccccc2)cc1)n1cncn1 (centres undefined),> 50 µM,> 50 µM
c1ccc(Oc2ccc(-c3cncc(-c4ccc5[nH]ccc5c4)n3)cc2)cc1,> 50 µM,> 50 µM
c1ccc(Oc2ccc(-c3cc(CN4CCOCC4)[nH]n3)cc2)cc1,> 50 µM,> 50 µM
O=C(C1CCCCC1)N1CC(=O)N2CCc3ccccc3C2C1 (centres undefined),> 50 µM,> 50 µM
Cc1cc(Nc2ccc(C(F)(F)F)cc2)n2ccnc2n1,> 50 µM,> 50 µM
N#Cc1ccc(-c2cnc(N)c(-c3ccc(C(N)=O)cc3)n2)cc1,> 50 µM,> 50 µM
COC(=O)C1=C(C)NC(C)=C(C(=O)OC(C)C)C1c1cccc2nonc12 (centres undefined),> 50 µM,> 50 µM
CCCn1c(CNc2ccccc2O)nc2ccccc21,> 50 µM,> 50 µM
C[C@H](C(N)=O)N1CCCC[C@@H]1c1ccc(OCc2cccc(F)c2)cc1,> 50 µM,> 50 µM
O=C(COc1cccc(F)c1)Nc1nc(-c2ccccn2)cs1,> 50 µM,> 50 µM
CNC(=O)c1cc(S(=O)(=O)N2CCN(c3ccccn3)CC2)cs1,> 50 µM,> 50 µM
COc1ccccc1CNC(=O)c1cc(C2CC2)nc2c1cnn2C(C)C,> 50 µM,> 50 µM
O=[N+]([O-])c1cn2c(n1)OC[C@@H](OCc1ccc(OC(F)(F)F)cc1)C2,> 50 µM,> 50 µM
Cc1cc(NC(=O)c2ccc(Oc3ccc(Cl)cc3O)o2)no1,50 µM,> 50 µM
COc1cc(C2=NCCN2)cc2cc(-c3ccc(C4=NCCN4)cc3)oc12,> 50 µM,> 50 µM
Nc1nc2cc(-c3cncc(Oc4ccc(F)cc4)c3)ccc2[nH]1,50 µM,50 µM
CNC(=O)C1Cc2ccccc2N1C(=O)Cc1ccc(F)cc1 (centres undefined),> 50 µM,> 50 µM
Cc1ccc2oc(-c3cc(NC(=O)Cc4ccccc4)ccc3Cl)nc2c1,> 50 µM,> 50 µM
COc1cccc2c(C)nc(N=C(N)N)nc12,> 50 µM,> 50 µM

Structure (SMILES),minimum inhibitory concentration [1],minimum inhibitory concentration [2]
c1ccc2c(c1)CN(CC1CC1)CC1(CCN(Cc3c[nH]c4cnccc34)CC1)O2,50 µM,50 µM
CCOc1ccc(OCC(=O)Nc2cc(C)cc(C)c2)cc1,> 50 µM,> 50 µM
CC(C)/N=c1\cc2n(-c3ccc(Cl)cc3)c3ccccc3nc-2cc1Nc1ccc(Cl)cc1,> 50 µM,> 50 µM
CCc1nc2ccccc2n1CC(O)COc1cc(C)ccc1Cl (centres undefined),> 50 µM,> 50 µM
CCNC(=O)C(C)Nc1nc(-c2cccnc2)nc2sc(C)c(C)c12 (centres undefined),> 50 µM,> 50 µM
CCCCOC(=O)Nc1cc2nc(C3CCCCC3)[nH]c2cc1N1CCCC1,> 50 µM,> 50 µM
N#Cc1nc(-c2ccccc2)oc1S(=O)(=O)c1ccc(Cl)cc1,> 50 µM,> 50 µM
Cc1cc(C)nc(-n2nc(C)cc2Nc2ccccc2)n1,> 50 µM,> 50 µM
Cc1ccc2nc(Cl)c(CNCc3cccs3)cc2c1,> 50 µM,> 50 µM
COc1ccc2nc(C)cc(OCC(=O)NCc3ccccc3)c2c1,> 50 µM,> 50 µM
Oc1c(I)cc(I)c2cccnc12,50 µM,> 50 µM
Cc1cc(Nc2ccncc2)n2nc(C)c(-c3ccccc3Cl)c2n1,> 50 µM,> 50 µM
CN1CCN(c2cc(-c3ccc(F)cc3)nc(-c3ccncc3)n2)CC1,> 50 µM,> 50 µM
Clc1ccc(Cl)c(CO[C@H]2CCCC[C@@H]2n2ccnc2)c1,> 50 µM,> 50 µM
COc1cc(C2=NCCN2)ccc1-n1cc(-c2cccc(C3=NCCN3)c2)nn1,> 50 µM,> 50 µM
O=C(c1[nH]nc2c1CCCC2)N1CCN(Cc2ccc3c(c2)OCO3)CC1,> 50 µM,> 50 µM
O=C(Cn1ccnc1[N+](=O)[O-])NCc1ccccc1,> 50 µM,> 50 µM
Cc1cccc(C(=O)Nc2ccnc(N(C)C3CCN(CC(C)C)CC3)c2)c1,> 50 µM,> 50 µM
COc1cc(C(F)(F)F)nc2ccc(C)c(N)c12,> 50 µM,> 50 µM
Nc1ccc2ncnc(Nc3ccc(OCc4cccc(F)c4)c(Cl)c3)c2c1,> 50 µM,> 50 µM
Nc1ncnc2c1c(-c1cnc3ccccc3c1)nn2CC1CCNCC1,> 50 µM,> 50 µM
Cc1cc(O)nc(-n2nc(C)cc2C)n1,> 50 µM,> 50 µM
Cc1cc(Cl)c(S(=O)(=O)N2CCCC2)cc1OCC(=O)NC1CCCCC1,> 50 µM,> 50 µM
Cc1cccc(Cn2ccc(NC(=O)c3ccc4c(c3)OCO4)n2)c1,> 50 µM,> 50 µM

Structure (SMILES),minimum inhibitory concentration [1],minimum inhibitory concentration [2]
OC[C@H]1O[C@@H](n2c3ccc(Cl)cc3c3c(-c4cc5ccccc5o4)ncnc32)C(O)[C@H]1O (some centres undefined),> 50 µM,> 50 µM
CC(=O)Oc1ccccc1C(=O)Nc1ncc([N+](=O)[O-])s1,> 50 µM,> 50 µM
COc1ccc2nc(C)cc(OCC(=O)Nc3ccccc3OC)c2c1,> 50 µM,> 50 µM
CCc1nc2ccc(C(=O)NCc3ccc4c(c3)OCO4)cn2c1N(C)Cc1cccs1,> 50 µM,> 50 µM
CCCCCCCCCCCCCCCCOP(=O)([O-])OCC[N+](C)(C)C,> 50 µM,> 50 µM
O=C(CN1CCOCC1)Nc1ccc2ncnc(Nc3ccc(OCc4cccc(F)c4)c(Cl)c3)c2c1,> 50 µM,> 50 µM
CC(C)(CN)c1nc(-c2ccc(Cl)c(O)c2)c(-c2ccnc(N)n2)[nH]1,> 50 µM,> 50 µM
NCCCC(N)(C(=O)O)C(F)F (centres undefined),> 50 µM,> 50 µM
COc1cccc(-n2nnnc2S(C)(=O)=O)c1,> 50 µM,> 50 µM
Cc1ccc2[nH]c3c(NCCN(C)C)ncnc3c2c1,> 50 µM,> 50 µM
Cc1c[nH]c(CCNC(=O)c2cc(-c3ccc(Cl)cc3)cs2)n1,> 50 µM,> 50 µM
Cc1ccc2[nH]c(C3CCCNC3)c(-c3ccncc3)c2c1 (centres undefined),> 50 µM,> 50 µM
Cc1nc(-c2ccccn2)nc(N(C)CCc2ccccc2)c1Cl,50 µM,50 µM
CN(C(=O)c1cc2c(-c3cncnc3)cccc2[nH]1)c1ccccc1,> 50 µM,> 50 µM
Nc1ncc(-c2ccc(C(F)(F)F)nc2)cc1-c1ccc(C(F)(F)F)nc1,> 50 µM,> 50 µM
Clc1cccc(CO[C@H]2CCc3ccccc3[C@@H]2n2ccnn2)c1,> 50 µM,> 50 µM
COc1ccccc1OCCCCn1c(C2CC2)nc2ccccc21,> 50 µM,> 50 µM
Cc1cc2ccccc2n1CC(=O)N1CC(C(=O)N2CCCCC2)Oc2ccccc21 (centres undefined),> 50 µM,> 50 µM
CC1(C)Cc2c(c(N3CCOCC3)nc3snc(Br)c23)CO1,> 50 µM,> 50 µM
COC(=O)c1c(NC(=O)c2cc3ccccc3oc2=O)sc2c1CCN(Cc1ccccc1)C2,> 50 µM,> 50 µM
CCCNC(=O)N1CCC2(CC1)CC(=O)c1cc(C)ccc1O2,> 50 µM,> 50 µM
O=C(C1CCN(c2nnc(-n3cccc3)s2)CC1)N1CCC(Cc2ccccc2)CC1,> 50 µM,> 50 µM
COc1cccc(NC(=O)c2c(NC(=O)c3cccnc3)sc3c2CCC3)c1,> 50 µM,> 50 µM
CC(C)C(NC(=O)Cc1cccc2ccccc12)C(=O)Nc1cccc(C#N)c1 (centres undefined),> 50 µM,> 50 µM
